Source: ChEMBL document CHEMBL6109160, “Novel Cyclic Peptides as Interleukin-23 Inhibitor for Treating Inflammatory Disorders” (ACS Med Chem Lett, 2025)

Target: T1, Interleukin-23 receptor (Homo sapiens, UniProt Q5VWK5)
T1 sequence (Q5VWK5 whole entry): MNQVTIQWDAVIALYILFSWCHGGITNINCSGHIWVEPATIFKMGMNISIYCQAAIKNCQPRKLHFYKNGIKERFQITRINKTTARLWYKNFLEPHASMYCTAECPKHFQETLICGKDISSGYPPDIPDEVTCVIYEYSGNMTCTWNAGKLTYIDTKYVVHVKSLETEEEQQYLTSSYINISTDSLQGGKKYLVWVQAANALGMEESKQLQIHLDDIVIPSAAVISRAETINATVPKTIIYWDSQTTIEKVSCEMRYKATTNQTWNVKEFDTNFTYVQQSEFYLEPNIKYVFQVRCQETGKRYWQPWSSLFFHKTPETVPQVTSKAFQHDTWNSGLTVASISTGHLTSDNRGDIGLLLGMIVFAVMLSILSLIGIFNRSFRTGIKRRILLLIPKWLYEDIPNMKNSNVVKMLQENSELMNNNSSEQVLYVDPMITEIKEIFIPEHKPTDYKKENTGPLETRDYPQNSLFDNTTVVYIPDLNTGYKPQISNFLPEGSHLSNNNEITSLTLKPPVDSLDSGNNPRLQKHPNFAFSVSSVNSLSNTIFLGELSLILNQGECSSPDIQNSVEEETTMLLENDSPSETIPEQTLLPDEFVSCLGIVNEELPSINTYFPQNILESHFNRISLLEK
Assay: Binding affinity to Interleukin-23 receptor in HEK293 cells transfected with firefly luciferase reporter incubated for 5 hrs by luminescence based analysis
Assay type: cell-based

## CC(=O)NCCCC[C@@H]1NC(=O)[C@H](Cc2c[nH]c3c(C)cccc23)NC(=O)[C@H]([C@@H](C)O)NC(=O)[C@H](CC(N)=O)NC(=O)[C@@H](NC(=O)CCOCCOCC[N+](C)(C)C)C(C)(C)SSC(C)(C)[C@@H](C(=O)N[C@@H](Cc2ccc(OCCN)cc2)C(=O)N[C@@H](Cc2ccc3ccccc3c2)C(=O)NC2(C(=O)N[C@@H](CCC(=O)O)C(=O)N[C@@H](CC(N)=O)C(=O)N[C@@H](Cc3cccnc3)C(=O)N(C)CC(N)=O)CCOCC2)NC1=O
  IC50: 0.012 µM
